# According to patent US9096832B2, “Differentiation of human embryonic stem cells” (LifeScan, Inc., priority 2007, dated 2015):
# Tested on: H9 embryonic stem cells
# Assay: Microarray analysis of definitive endoderm stage cells on […] or MEFs +/- Wnt-3a (Table VI)
# Assay type: cell-based, human
# Details: for mean normalized intensity: ESTs: DE treatment in low serum on MEFS, log format
# Procedure: Controls for each group included cells plated on [sequence]—coated dishes and cultured in MEF-conditioned medium or cells plated on MEFs and cultured in ES medium. All groups contained three biological replicates and each biological replicate was repeated on two separate gene chips.
# Sample preparation, hybridization, and image analysis were performed according to the Affymetrix Human Genome U133 Plus 2.0 Array. Following normalization and a log transformation, data analysis was performed using OmniViz® software (MA) and [sequence] […] Significant differences in gene expression between the samples were evaluated using analysis of variance and an F-test with adjusted P-value (Benjamini and Hochberg correction) of less-than or equal to 0.05. Only genes with a present call in at least one group were included in the analysis.
substance,measurement,setting,value
"Activin A: activin A (a member of the TGFβ superfamily), R&D Systems; 'w/o wnt' in Table VII = 100 ng/ml Activin A without Wnt3a",mean normalized intensity: ESTs,gene line r2134,−0.9461
same,mean normalized intensity: ESTs,gene line r2148,5.334
same,"Intensity (log): 6-phosphofructo-2-kinasefructose-2,6-biphosphatase 4","low serum, on MATRIGEL",−0.2429
same,"Intensity (log): ESTs, Highly similar to IHH_HUMAN INDIAN HEDGEHOG PROTEIN PRECURSOR (H. sapiens)","low serum, on MATRIGEL",−0.654
same,"Intensity (log): ESTs, Moderately similar to JE0284 Mm-1 cell derived transplantability-associated protein 1b (H. sapiens)","low serum, on MATRIGEL",−2.377
same,"Intensity (log): ESTs, Weakly similar to FCE2 MOUSE LOW AFFINITY IMMUNOGLOBULIN EPSILON FC RECEPTOR (M. musculus)","low serum, on MATRIGEL",0.4942
same,"Intensity (log): ESTs, Weakly similar to the 331st table hypothetical protein KIAA0555 (H. sapiens)","low serum, on MATRIGEL",−1.574
same,Intensity (log): G protein-coupled receptor,"low serum, on MATRIGEL",1.507
same,Intensity (log): G protein-coupled receptor 49,"low serum, on MATRIGEL",0.2655
same,"Intensity (log): Homo sapiens Kell blood group (KEL), mRNA","low serum, on MATRIGEL",−2.205
same,"Intensity (log): Homo sapiens MLL septin-like fusion (MSF), mRNA","low serum, on MATRIGEL",−3.292
same,"Intensity (log): Homo sapiens Mix-like homeobox protein 1 (MILD1) mRNA, complete cds","low serum, on MATRIGEL",−1.546
same,"Intensity (log): Homo sapiens Rho GTPase activating protein 6 (ARHGAP6), transcript variant 2, mRNA","low serum, on MATRIGEL",−1.104
same,"Intensity (log): Homo sapiens TBX3-iso protein (TBX3-iso), mRNA","low serum, on MATRIGEL",−2.346
same,"Intensity (log): Homo sapiens angiopoietin 2 (ANGPT2), mRNA","low serum, on MATRIGEL",−2.93
same,"Intensity (log): Homo sapiens ankyrin-like with transmembrane domains 1 (ANKTM1), mRNA","low serum, on MATRIGEL",−1.109
same,"Intensity (log): Homo sapiens apolipoprotein A-I (APOA1), mRNA","low serum, on MATRIGEL",−1.471
same,"Intensity (log): Homo sapiens apolipoprotein A-II (APOA2), mRNA","low serum, on MATRIGEL",−1.033
same,"Intensity (log): Homo sapiens arylsulfatase E (chondrodysplasia punctata 1) (ARSE), mRNA","low serum, on MATRIGEL",0.283
same,"Intensity (log): Homo sapiens atrophin-1 interacting protein 1; activin receptor interacting protein 1 (KIAA0705), mRNA","low serum, on MATRIGEL",−4.308
same,"Intensity (log): Homo sapiens beta-site APP cleaving enzyme (BACE) mRNA, complete cds","low serum, on MATRIGEL",−2.0354
same,"Intensity (log): Homo sapiens cDNA FLJ11550 fis, clone HEMBA1002970","low serum, on MATRIGEL",−1.222
same,"Intensity (log): Homo sapiens cDNA FLJ12993 fis, clone NT2RP3000197","low serum, on MATRIGEL",0.1473
same,"Intensity (log): Homo sapiens cDNA FLJ13221 fis, clone NT2RP4002075","low serum, on MATRIGEL",0.3557
same,"Intensity (log): Homo sapiens cardiac ventricular troponin C mRNA, complete cds","low serum, on MATRIGEL",−0.5497
same,"Intensity (log): Homo sapiens cartilage linking protein 1 (CRTL1), mRNA","low serum, on MATRIGEL",−1.315
same,"Intensity (log): Homo sapiens cell adhesion molecule with homology to L1CAM (close homologue of L1) (CHL1), mRNA","low serum, on MATRIGEL",−0.5412
same,"Intensity (log): Homo sapiens chromosome 19, cosmid R31181","low serum, on MATRIGEL",−0.2589
same,Intensity (log): Homo sapiens clone 23736 mRNA sequence,"low serum, on MATRIGEL",−0.04718
same,"Intensity (log): Homo sapiens cryptic mRNA, complete cds","low serum, on MATRIGEL",0.1049
same,"Intensity (log): Homo sapiens cystatin S (CST4), mRNA","low serum, on MATRIGEL",0.9245
same,"Intensity (log): Homo sapiens cystatin SA (CST2), mRNA","low serum, on MATRIGEL",−0.1022
same,"Intensity (log): Homo sapiens cystatin SN (CST1), mRNA","low serum, on MATRIGEL",0.07293
same,"Intensity (log): Homo sapiens cytidine deaminase (CDA), mRNA","low serum, on MATRIGEL",−3.891
same,"Intensity (log): Homo sapiens dual specificity phosphatase 4 (DUSP4), mRNA","low serum, on MATRIGEL",0.9539
same,"Intensity (log): Homo sapiens fibroblast growth factor 8 (androgen-induced) (FGF8), mRNA","low serum, on MATRIGEL",−4.328
same,"Intensity (log): Homo sapiens fibroblast growth factor 17 (FGF17), mRNA","low serum, on MATRIGEL",−0.8946
same,"Intensity (log): Homo sapiens frizzled-related protein (FRZB), mRNA","low serum, on MATRIGEL",0.565
same,"Intensity (log): Homo sapiens gastrin-releasing peptide (GRP), mRNA","low serum, on MATRIGEL",−2.741
same,"Intensity (log): Homo sapiens glycophorin E (GYPE), mRNA","low serum, on MATRIGEL",−2.016
same,Intensity (log): Homo sapiens glycophorin Erik STA (GPErik) gene complete cds,"low serum, on MATRIGEL",−1.194
same,"Intensity (log): Homo sapiens growth differentiation factor 3 (GDF3), mRNA","low serum, on MATRIGEL",1.673
same,"Intensity (log): Homo sapiens haptoglobin (HP), mRNA","low serum, on MATRIGEL",−1.101
same,"Intensity (log): Homo sapiens haptoglobin-related protein (HPR), mRNA","low serum, on MATRIGEL",−2.6068
same,"Intensity (log): Homo sapiens homeobox protein goosecoid mRNA, complete cds","low serum, on MATRIGEL",−4.42
same,"Intensity (log): Homo sapiens hypothetical protein FLJ10718 (FLJ10718), mRNA","low serum, on MATRIGEL",2.605
same,"Intensity (log): Homo sapiens hypothetical protein FLJ10970 (FLJ10970), mRNA","low serum, on MATRIGEL",−0.432
same,"Intensity (log): Homo sapiens hypothetical protein FLJ11316 (FLJ11316), mRNA","low serum, on MATRIGEL",−0.9047
same,"Intensity (log): Homo sapiens hypothetical protein FLJ22252 similar to SRY-box containing gene 17 (FLJ22252), mRNA","low serum, on MATRIGEL",1.368
same,"Intensity (log): Homo sapiens lumican (LUM), mRNA","low serum, on MATRIGEL",−4.057
same,"Intensity (log): Homo sapiens mRNA for GATA-6, complete cds","low serum, on MATRIGEL",2.219
same,"Intensity (log): Homo sapiens mRNA for KIAA1409 protein, partial cds","low serum, on MATRIGEL",0.3683
same,Intensity (log): Homo sapiens mRNA; cDNA DKFZp434D0818 (from clone DKFZp434D0818),"low serum, on MATRIGEL",−2.634
same,Intensity (log): Homo sapiens mRNA; cDNA DKFZp586J0624 (from clone DKFZp586J0624); complete cds,"low serum, on MATRIGEL",−0.8352
same,"Intensity (log): Homo sapiens presenilin stabilization factor b (PSF) mRNA, complete cds; alternatively spliced","low serum, on MATRIGEL",−0.8617
same,"Intensity (log): Homo sapiens reserved (KCNK12), mRNA","low serum, on MATRIGEL",−0.4687
same,"Intensity (log): Homo sapiens retinoid X receptor, gamma (RXRG), mRNA","low serum, on MATRIGEL",−2.375
same,"Intensity (log): Homo sapiens sema domain, immunoglobulin domain (Ig), short basic domain, secreted, (semaphorin) 3E (SEMA3E), mRNA","low serum, on MATRIGEL",−0.786
same,"Intensity (log): Homo sapiens sema domain, seven thrombospondin repeats (type 1 and type 1-like), transmembrane domain (TM) and short cytoplasmic domain, (semaphorin) 5A (SEMA5A), mRNA","low serum, on MATRIGEL",−1.533
same,"Intensity (log): Homo sapiens solute carrier family 21 (prostaglandin transporter), member 2 (SLC21A2), mRNA","low serum, on MATRIGEL",0.7114
same,"Intensity (log): Homo sapiens type VI collagen alpha 2 chain precursor (COL6A2) mRNA, complete cds, alternatively spliced","low serum, on MATRIGEL",1.7011
same,"Intensity (log): Homo sapiens, alpha-1 (VI) collagen","low serum, on MATRIGEL",−3.662
same,"Intensity (log): Homo sapiens, clone MGC: 4655, mRNA, complete cds","low serum, on MATRIGEL",2.3772
same,"Intensity (log): Human (clone 8B1) Br-cadherin mRNA, complete cds","low serum, on MATRIGEL",−2.179
same,"Intensity (log): Human (clone HSY3RR) neuropeptide Y receptor (NPYR) mRNA, complete cds","low serum, on MATRIGEL",1.775
same,"Intensity (log): Human DNA sequence from clone RP1-181C24 on chromosome 6p11.1-12.2. Contains the 3 end of the BMP5 gene for bone morphogenetic protein 5, ESTs, STSs and GSSs","low serum, on MATRIGEL",−3.723
same,"Intensity (log): Human Fritz mRNA, complete cds","low serum, on MATRIGEL",0.4366
same,"Intensity (log): Human dipeptidyl peptidase IV (CD26) mRNA, complete cds","low serum, on MATRIGEL",−3.611
same,"Intensity (log): Human glycophorin HeP2 mRNA, partial cds","low serum, on MATRIGEL",−0.8435
same,"Intensity (log): Human link protein mRNA, complete cds","low serum, on MATRIGEL",−1.94
same,Intensity (log): Human mRNA for alpha-1 type II collagen,"low serum, on MATRIGEL",−2.8736
same,Intensity (log): Human mRNA for apolipoprotein AI (apo AI),"low serum, on MATRIGEL",0.2151
same,"Intensity (log): Human prostatic secretory protein 57 mRNA, complete cds","low serum, on MATRIGEL",−3.013
same,Intensity (log): KIAA1462 protein,"low serum, on MATRIGEL",−3.846
same,"Intensity (log): MCP-1 = monocyte chemotactic protein (human, aortic endothelial cells, mRNA, 661 nt)","low serum, on MATRIGEL",−2.276
same,Intensity (log): Rho GDP dissociation inhibitor (GDI) alpha,"low serum, on MATRIGEL",−1.544
same,"Intensity (log): WAS protein family, member 2","low serum, on MATRIGEL",−2.187
same,"Intensity (log): collagen, type IX, alpha 2","low serum, on MATRIGEL",1.27
same,"Intensity (log): collagen, type VI, alpha 1","low serum, on MATRIGEL",−1.418
same,"Intensity (log): hepatocyte nuclear factor 4, alpha","low serum, on MATRIGEL",−4.266
same,Intensity (log): homeo box HB9,"low serum, on MATRIGEL",−1.656
same,Intensity (log): hypothetical protein FLJ21032,"low serum, on MATRIGEL",0.3557
same,Intensity (log): hypothetical protein FLJ23091,"low serum, on MATRIGEL",0.3234
same,Intensity (log): microfibrillar-associated protein 4,"low serum, on MATRIGEL",0.06379
same,"Intensity (log): myristoylated alanine-rich protein kinase C substrate (MARCKS, 80K-L)","low serum, on MATRIGEL",−0.7172
